{
  "source": "patent US8524498B2",
  "about": "“Methods and compositions for homologous recombination in human cells” (The General Hospital Corporation, priority 2009, dated 2013)",
  "key": {"hLR5 cells [1]": {"tested_on": "hLR5 cells", "assay": "SSEA1 cell surface marker expression by flow cytometry on hLR5 cells cultured with pathway inhibitors", "type": "cell-based, human", "conditions": "flow cytometry after 1 week culture in hLR5 media with inhibitor; Jak-inhibitor I 0.6 μM, PD98059 50 μM, PD1 84352 0.8 μM, PD0325901 1 μM", "excerpt": "(§1) FIGS. 2A-2F: LIF-responsiveness of hLR5 cells. 2A Western blot analysis of STAT3 phosphorylation in two independent hLR5 clones, with or without LIF-stimulation as indicated; 2B Immunostaining of STAT3 subcellular localization in hLR5 cells before (top panel) or after (bottom panel) LIF stimulation. Note the translocation of STAT3 from the cytoplasm (top panel) to the nucleus (bottom panel). Cell nuclei were visualized with DAPI; 2C Gene expression analysis of downstream target genes of the JAK/STAT signaling pathway in three hLR5 clones as well as human ES cell lines and conventional human iPS cell lines; 2D Flow cytometry analysis of SSEA 1 surface marker on hLR5 cells upon LIF removal. Lines indicate (i) LIF control, (ii) LIF substitution with bFGF, and (iii) no added growth factor; 2E Colony morphology of the hLR5 cells before (top panel) and after LIF substitution with bFGF; 2F Flow cytometry analysis of SSEA1 cell surface marker expression on hLR5 cells in the presence of small molecule inhibitors of the JAK/STAT and MEK/ERK signaling pathways. hLR5 cells were maintained in hLR5 media for 1 week in the presence of inhibitors. Grey shaded area: Jak-inhibitor, lines: MEK inhibitors (PD9805, PD1 84352 and PD0325901, as indicated). A line indicating a control (i.e., lacking inhibitor) is also present.\nUpon removal or substitution of LIF from the hLR5 culture media, SSEA1 expression waned (FIG. 2D). In addition, a change in colony morphology was observed following LIF withdrawal (FIG. 2E). In murine ES cells, LIF activates the JAK/STAT3 and the RAS/MEK/MAPK signaling pathways, which have opposing roles in murine ES cell maintenance and differentiation. […] Specific inhibitors of JAK/STAT signaling or the MAPK/MEK signaling pathway were used to examine the relative role of these pathways in hLR5 cells. SSEA1 cell surface marker expression was examined by flow cytometry upon culture of hLR5 cells in the presence of specific inhibitors for 1 week.\nCells were collected by trypsinization and resuspended in ice-cold RPMI+0.5% FBS. Cells were incubated with the antibodies against the indicated surface antigens for 30 min at 4° C. The following antibodies were used for cell surface marker profiling: SSEA 1 (BD BIOSCIENCES™), TRA-1-81, TRA-1-60, SSEA3 and SSEA4 (MILLIPORE™). Cells were washed twice with RPMI/0.5% FBS and incubated with the relevant fluorophore-conjugated secondary antibody (BD BIOSCIENCES™) for 30 min at 4° C. Cells were washed twice with RPMI/0.5% FBS, resuspended in RPMI/0.5% FBS and analyzed on a BECTON-DICKINSON FACSCALIBUR™ cell analyzer."}, "hLR5 cells [2]": {"tested_on": "hLR5 cells", "assay": "Conversion of hLR5 cells into stable pluripotent LD-hiPS colonies", "type": "cell-based, human", "conditions": "for conversion frequency of hLR5 cells into LD-hiPS cells: LIF and MEK inhibitor PD98059 added during the conversion process, about 0.01% without; for increase in conversion frequency compared to FGF alone: LIF and PD98059 (50 μM) in combination; for hLR5 conversion rate: agent added alone to bFGF after doxycycline withdrawal, PD98059 50 μM; for enhancement of hLR5 conversion: titration curve of GSK3β inhibitor alone or in combination with LIF and/or PD98059, even at high concentration (not shown)", "method": "FIG. 9: Conversion rate of hLR5 cells into LD-hi PS cells is influenced by growth factors and inhibition of MEK signaling. Bar graph indicates the average number of stable pluripotent LD-hiPS colonies obtained after plating of 100.000 hLR5 cells in the presence of the indicated combinations of growth factors and MEK inhibitor (PD98059, 50 μM).\nFIG. 4A outlines the procedure of converting hLR5 cells into stable iPS cells. Clonal hLR5 cell lines were plated at a density of 5000 cells per cm^2 in media containing human LIF and doxycycline to support the continued expression of ectopic reprogramming factors. The next day, doxycycline was withdrawn from the hLR5 cultures and cells were further maintained in the presence of bFGF alone (FIG. 4A). […] These cells are referred to herein as hLR5-derived human iPS cells (LD-hiPS) to signify their prior hLR5 status. The conversion frequency of hLR5 cells into LD-hiPS cells was low, approximately 0.01%, yet similar to the conversion of murine metastable iPS cells of the NOD strain into stable EpiSC-like iPS cells (Hanna et al., 2009). […] Whether LIF and/or small molecule inhibitors could positively influence the conversion of hLR5 cells to a stable pluripotent state was analyzed."}, "[3]": {"tested_on": "JAK-STAT signaling pathway", "assay": "LIF stimulation of hLR5 cells: JAK-STAT pathway activation (Western blot, STAT3 immunostaining, gene expression)", "type": "cell-based, human", "excerpt": "as §1, with “present. […]” for “present.”"}, "[4]": {"tested_on": "human pluripotent stem cells", "assay": "Culture of human pluripotent stem cells with pharmacological inhibitors: passaging, proliferation, colony morphology", "type": "cell-based", "conditions": "for colony morphology of human pluripotent stem cells (ES cells and iPS cells): CHIR99021 (3 μM) together with PD98059 (50 μM)", "excerpt": "FIGS. 12A-12C: Inhibition of PKA or GSK3β signaling enhances human pluripotent stem cell proliferation rate and improves the introduction of transgenes by homologous recombination. 12A. Cell proliferation curve. Cell numbers of human iPS cells were counted at the indicated time intervals. Plotted is the cumulative cell number over 37 days of culture. All cells were maintained in standard human iPS culture conditions (e.g., Maherali et al. Cell Stem Cell 2008, 3:340-345) with indicated additions: DMSO ([…], 0.1%); CHIR99021 (GSK3β inhibitor, 3 μM), Kenpaullone (GSK3β inhibitor, 5 μM); BIO (GSK3β inhibitor, 15 μM) and SB216763 (GSK3β inhibitor, 1 μM). 12B Colony morphology of human pluripotent stem cells cultured in the presence of the GSK3β inhibitor (3 μM) and PD98059 (50 μM). 12C Influence of signaling inhibitors on the introduction of a 10 kb transgene construct carrying a puromycin selection cassette. Puromycin selection was applied at 0.25 μg/mL 48 hours after electroporation of human iPS cells with 20 μg of the linearized plasmid.\nIt was therefore sought to explore if small molecule inhibitors can affect human pluripotent stem cell colony morphology, proliferation and the ability to introduce transgenes using homologous recombination. Human pluripotent stem cells were maintained in standard medium (DMEM/F12 containing 20% knockout serum replacement, 2 mM L-Glutamine, 1% non-essential amino acids, 100 U of penicillin, 100 μg streptomycin, 0.1 mM beta-mercaptoethanol and 5 ng/mL bFGF, with or without pharmacological inhibitors.\nThe inhibition of GSK3β can increase the frequency of homologous recombination in both iPS cells derived in the presence of the five reprogramming factors as described above, and in human ES cells. The human ES cells acquired a mouse ES cell-like morphology, became capable of single cell expansion, and became capable of trypsin passaging when incubated with a GSK3β inhibitor. The effect and the increase in homologous recombination could be facilitated by co-addition of MEK inhibitor(s)."}},
  "data": [
    {"compound": "O=C(NOC[C@H](O)CO)c1ccc(F)c(F)c1Nc1ccc(I)cc1F", "note": "[PD0325901]", "values": [
      {"measurement": "expression of SSEA1 on hLR5 cells", "setting": "hLR5 cells [1]", "result": "did not affect cell surface marker expression"}
    ]},
    {"compound": "Jak-inhibitor I", "values": [
      {"measurement": "expression of SSEA1 on hLR5 cells", "setting": "hLR5 cells [1]", "result": "marked decrease"}
    ]},
    {"compound": "LIF: human LIF growth factor activating JAK-STAT signaling", "values": [
      {"measurement": "conversion frequency of hLR5 cells into LD-hiPS cells", "setting": "hLR5 cells [2]", "result": "~0.1", "unit": "%"},
      {"measurement": "increase in conversion frequency compared to FGF alone", "setting": "hLR5 cells [2]", "result": "~8", "unit": "fold"},
      {"measurement": "hLR5 conversion rate", "setting": "hLR5 cells [2]", "result": "slight increase"},
      {"measurement": "STAT3 nuclear translocation in hLR5 cells", "setting": "[3]; 15 minute stimulation with human LIF, immunofluorescence", "result": "rapid STAT3 nuclear translocation"},
      {"measurement": "STAT3 phosphorylation in hLR5 cells", "setting": "[3]; LIF stimulation, Western blot", "result": "robustly induces STAT3 phosphorylation"}
    ]},
    {"compound": "Cc1c[nH]c(-c2cnc(NCCNc3ccc(C#N)cn3)nc2-c2ccc(Cl)cc2Cl)n1", "note": "[CHIR99021]", "values": [
      {"measurement": "enhancement of hLR5 conversion", "setting": "hLR5 cells [2]", "result": "did not enhance hLR5 conversion"},
      {"measurement": "colony morphology of human pluripotent stem cells (ES cells and iPS cells)", "setting": "[4]", "result": "adopted the characteristic tight dome-shaped morphology of murine ES cells"}
    ]},
    {"compound": "O=C1Cc2c([nH]c3ccc(Br)cc23)-c2ccccc2N1", "note": "[Kenpaullone]", "values": [
      {"measurement": "enhancement of hLR5 conversion", "setting": "hLR5 cells [2]", "result": "did not enhance hLR5 conversion"}
    ]},
    {"compound": "O=C(NOCC1CC1)c1ccc(F)c(F)c1Nc1ccc(I)cc1Cl", "note": "[PD1 84352]", "values": [
      {"measurement": "expression of SSEA1 on hLR5 cells", "setting": "hLR5 cells [1]", "result": "did not affect cell surface marker expression"}
    ]},
    {"compound": "COc1cccc(-c2cc(=O)c3ccccc3o2)c1N", "note": "[PD98059]", "values": [
      {"measurement": "expression of SSEA1 on hLR5 cells", "setting": "hLR5 cells [1]", "result": "did not affect cell surface marker expression"},
      {"measurement": "conversion frequency of hLR5 cells into LD-hiPS cells", "setting": "hLR5 cells [2]", "result": "~0.1", "unit": "%"},
      {"measurement": "increase in conversion frequency compared to FGF alone", "setting": "hLR5 cells [2]", "result": "~8", "unit": "fold"},
      {"measurement": "hLR5 conversion rate", "setting": "hLR5 cells [2]", "result": "slight increase"},
      {"measurement": "colony morphology of human pluripotent stem cells (ES cells and iPS cells)", "setting": "[4]", "result": "adopted the characteristic tight dome-shaped morphology of murine ES cells"}
    ]},
    {"compound": "C[S+](C)[O-]", "note": "[DMSO]", "values": [
      {"measurement": "trypsin passaging of human pluripotent stem cells", "setting": "[4]; standard medium with inhibitor, DMSO 0.1%", "result": "allowed trypsin passaging"},
      {"measurement": "pluripotent stem cell proliferation rate", "setting": "[4]; standard medium with inhibitor, DMSO 0.1%, cumulative cell number over 37 days", "result": "enhanced the pluripotent stem cell proliferation rate"}
    ]}
  ]
}
